Target: T1, GAL4 DBD (1-147)-CfEcR(DEF)/VP16AD-βRXREF-LmUSPEF (Choristoneura fumiferana, UniProt O77240)
T1 construct: The wild-type D, E, and F domains from spruce budworm Choristoneura fumiferana EcR (“CfEcR-DEF”)
Assay: 27-63 Assay (luciferase reporter gene assay in stably transfected CHO cell clone)
Type: cell-based
Conditions: for relative Max F1 27-63 Assay: maximum fold induction at any concentration relative to maximum fold induction of GS-E ligand
Procedure: Stably transfected cells were selected by Zeocin resistance. Individually isolated CHO cell clones were transiently transfected with a GAL4 RE-luciferase reporter (pFR Luc). 27-63 clone was selected using Hygromycin.
Cells were trypsinized and diluted to a concentration of 2.5×10^4 cells mL. 100 μL of cell suspension was placed in each well of a 96 well plate and incubated at 37° C. under 5% CO2 for 24 h. Ligand stock solutions were prepared in DMSO and diluted 300 fold for all treatments.
Luciferase reporter gene expression was measured 48 h after cell treatment using Bright-Glo™ Luciferase Assay System from Promega (E2650). Luminescence was detected at room temperature using a Dynex MLX microtiter plate luminometer. EC50s were calculated from dose response data using a three-parameter logistic model.
Each assay was conducted in two separate wells, and the two values were averaged.

[1] = CHO 27-63 clone, luciferase, 48 h

SMILES	EC50	relative Max F1 27-63 Assay [1]	Avg F1 27-63 Assay (at 33 μM, CHO 27-63 clone, luciferase, 48 h)
CCCCC(N(NC(=O)c1cccc(OC)c1C)C(=O)c1cc(C)cc(C)c1)C(C)(C)CCC (stereo not shown) [RG-115877, 3,5-Dimethyl-benzoic acid N-(1-butyl-2,2-dimethyl-pentyl)-N′-(3-methoxy-2-methyl-benzoyl)-hydrazide]	2250 nM	1.48	–
Cc1cc(C)cc(C(=O)N(NC(=O)c2ccc3c(c2C)O[C@@H](CS(C)(=O)=O)CO3)C(C)(C)C)c1 [RG-115818, 3,5-Dimethyl-benzoic acid N-tert-butyl-N′-(3-methanesulfonyl-methyl-5-methyl-2,3-dihydro-benzo[1,4]dioxine-6-carbonyl)-hydrazide]	5260 nM	–	–
Cc1cc(C)cc(C(=O)N(NC(=O)c2ccc3c(c2C)OC(CF)CO3)C(C)(C)C)c1 (stereo not shown) [RG-115815, 3,5-dimethyl-benzoic acid N-tert-butyl-N′-(3-fluoromethyl-5-methyl-2,3-dihydro-benzo[1,4]dioxine-6-carbonyl)-hydrazide]	300 nM	0.738	–
Cc1ccc(S(=O)(=O)OCC2COc3ccc(C(=O)NN(C(=O)c4cc(C)cc(C)c4)C(C)(C)C)c(C)c3O2)cc1 (stereo not shown) [RG-115813, toluene-4-sulfonic acid 7-[N′-tert-butyl-N′-(3,5-dimethyl-benzoyl)-hydrazinocarbonyl]-8-methyl-2,3-dihydro-benzo[1,4]dioxin-2-ylmethyl ester]	> 33000 nM	0.01	–
CCCCCCC(N(NC(=O)c1ccc(CC)cc1)C(=O)c1cccnc1OC)C(C)(C)C (stereo not shown) [RG-115845, 2-methoxy-nicotinic acid N-(1-tert-butyl-heptyl)-N′-(4-ethyl-benzoyl)-hydrazide]	4470 nM	0.52	–
CCCCCCC(N(NC(=O)c1cccc(OC)c1C)C(=O)c1cc(OC)c(C)c(OC)c1)C(C)(C)C (stereo not shown) [RG-115854]	200 nM	0.917	–
Cc1cc(C)cc(C(=O)N(NC(=O)c2ccc3c(c2C)OC(C(=O)O)CO3)C(C)(C)C)c1 (stereo not shown) [RG-115805, 7-[N′-tert-butyl-N′-(3,5-dimethyl-benzoyl)-hydrazinocarbonyl]-8-methyl-2,3-dihydro-benzo[1,4]dioxine-2-carboxylic acid]	> 33000 nM	0.01	–
COC(=O)[C@H]1COc2ccc(C(=O)NN(C(=O)c3cc(C)cc(C)c3)C(C)(C)C)c(C)c2O1 [RG-115806]	~33000 nM	0.25	–
CCCCCCC(N(NC(=O)c1ccc(CC)cc1)C(=O)c1cc(C)cc(C)c1)C(C)(C)C (stereo not shown) [RG-115843]	850 nM	0.73	–
Cc1cc(C)cc(C(=O)N(NC(=O)c2ccc3c(c2C)OC(C=NO)CO3)C(C)(C)C)c1 (stereo not shown) [RG-115814, 3,5-dimethyl-benzoic acid N-tert-butyl-N′-[3-(hydroxyimino-methyl)-5-methyl-2,3-dihydro-benzo[1,4]dioxine-6-carbonyl]-hydrazide]	320 nM	1.0	–
Cc1cc(C)cc(C(=O)N(NC(=O)c2ccc3c(c2C)OC(CCN)CO3)C(C)(C)C)c1 (stereo not shown) [RG-115809, 3,5-dimethyl-benzoic acid N′-[3-(2-amino-ethyl)-5-methyl-2,3-dihydro-benzo[1,4]dioxine-6-carbonyl]-N-tert-butyl-hydrazide]	3250 nM	1.09	–
Cc1cc(C)cc(C(=O)N(NC(=O)c2ccc3c(c2C)OC(COC(=O)Nc2ccccc2)CO3)C(C)(C)C)c1 (stereo not shown) [RG-115808, phenyl-carbamic acid 7-[N′-tert-butyl-N′-(3,5-dimethyl-benzoyl)-hydrazinocarbonyl]-8-methyl-2,3-dihydro-benzo[1,4]dioxin-2-ylmethyl ester]	1120 nM	2.37	–
Cc1cc(C)cc(C(=O)N(NC(=O)c2ccc3c(c2C)OC(CC#N)CO3)C(C)(C)C)c1 (stereo not shown) [RG-115816, 3,5-Dimethyl-benzoic acid N-tert-butyl-N′-(3-cyanomethyl-5-methyl-2,3-dihydro-benzo[1,4]dioxine-6-carbonyl)-hydrazide]	4220 nM	0.85	–
CNC(=O)C1COc2ccc(C(=O)NN(C(=O)c3cc(C)cc(C)c3)C(C)(C)C)c(C)c2O1 (stereo not shown) [RG-115811, 7-[N′-tert-butyl-N′-(3,5-dimethyl-benzoyl)-hydrazinocarbonyl]-8-methyl-2,3-dihydro-benzo[1,4]dioxine-2-carboxylic acid methylamide]	> 33000 nM	0.24	–
Cc1cc(C)cc(C(=O)N(NC(=O)c2ccc3c(c2C)OC(CO)CO3)C(C)(C)C)c1 (stereo not shown) [RG-115789, 3,5-dimethylbenzoic acid N-tert-butyl-N′-(3-hydroxymethyl-5-methyl-2,3-dihydrobenzo[1,4]dioxine-6-carbonyl)-hydrazide]	1850 nM	0.81	–
Cc1cc(C)cc(C(=O)N(NC(=O)c2ccc3c(c2C)OC(C(=O)Oc2c(F)c(F)c(F)c(F)c2F)CO3)C(C)(C)C)c1 (stereo not shown) [RG-115810, 7-[N′-tert-butyl-N′-(3,5-dimethyl-benzoyl)-hydrazinocarbonyl]-8-methyl-2,3-dihydro-benzo[1,4]dioxine-2-carboxylic acid pentafluorophenyl ester]	~20000 nM	1.23	–
CCCCCCC(N(NC(=O)c1ccc(CC)cc1)C(=O)c1cc(OC)c(C)c(OC)c1)C(C)(C)C (stereo not shown) [RG-115844]	1230 nM	0.352	–
CCCCCCC(N(NC(=O)c1cccc(OC)c1C)C(=O)c1cc(C)cc(C)c1)C(C)(C)C (stereo not shown) [RG-115853, 3,5-dimethyl-benzoic acid N-(1-tert-butyl-heptyl)-N′-(3-methoxy-2-methyl-benzoyl)-hydrazide]	100 nM	0.898	–
C=CCC(C)(C)C(CCCC)N(NC(=O)c1cccc(OC)c1C)C(=O)c1cc(C)cc(C)c1 (stereo not shown) [RG-115878, 3,5-dimethyl-benzoic acid N-(1-butyl-2,2-dimethyl-pent-4-enyl)-N′-(3-methoxy-2-methyl-benzoyl)-hydrazide]	100 nM	1.05	–
Cc1cc(C)cc(C(=O)N(NC(=O)c2ccc3c(c2C)O[C@@H](C=NNC(N)=O)CO3)C(C)(C)C)c1 [RG-115807, 3,5-dimethyl-benzoic acid N-tert-butyl-N′-(3-formylsemicarbazide-5-methyl-2,3-dihydro-benzo[1,4]dioxine-6-carbonyl)-hydrazide]	3340 nM	0.80	–
COc1cccc(C(=O)NN(C(=O)c2cc(C)cc(C)c2)C(/C=C(\C)C(C)(C)C)C(C)(C)C)c1C (stereo not shown) [RG-115855, 3-methoxy-2-methyl-benzoic acid N′-(1-tert-butyl-3,4,4-trimethyl-pent-2-enyl)-N′-(3,5-dimethyl-benzoyl)-hydrazide]	26.7 nM	1.16	–
Cc1cc(C)cc(C(=O)N(NC(=O)c2ccc3c(c2C)OC(C=O)CO3)C(C)(C)C)c1 (stereo not shown) [RG-115812, 3,5-dimethyl-benzoic acid N-tert-butyl-N′-(3-formyl-5-methyl-2,3-dihydro-benzo[1,4]dioxine-6-carbonyl)-hydrazide]	2680 nM	0.86	–
Cc1cc(C)cc(C(=O)N(NC(=O)c2ccc3c(c2C)O[C@@H](CO[Si](C)(C)C(C)(C)C)CO3)C(C)(C)C)c1 [RG-115790, 3,5-dimethylbenzoic acid N-tert-butyl-N′-[3-(tert-butyldimethylsilytoxymethyl)-5-methyl-2,3-dihydrobenzo[1,4]dioxine-6-carbonyl]-hydrazide]	> 33000 nM	0.0	–
CSCC1COc2ccc(C(=O)NN(C(=O)c3cc(C)cc(C)c3)C(C)(C)C)c(C)c2O1 (stereo not shown) [RG-115817, 3,5-dimethyl-benzoic acid N-tert-butyl-N′-(5-methyl-3-methylsulfanylmethyl-2,3-dihydro-benzo[1,4]dioxine-6-carbonyl)-hydrazide]	2900 nM	0.95	–
COc1cccc(C(=O)NN(C(=O)c2cc(C)cc(C)c2)/C(=C/C#N)C(C)(C)C)c1C [RG-115860, 3-methoxy-2-methyl-benzoic acid N′-(1-tert-butyl-2-cyano-vinyl)-N′-(3,5-dimethylbenzoyl) hydrazide]	–	–	Avg F1 = 2307 at 33 μM
CCc1c(OC)cccc1C(=O)NN(C(=O)c1cc(C)cc(C)c1)C(C)(C)C [GS ™-E ligand, 3,5-Dimethyl-benzoic acid N-tert-butyl-N′-(2-ethyl-3-methoxy-benzoyl)-hydrazide, reference compound]	288 nM	–	–

— patent US7851220B2, “Diacylhydrazine ligands for modulating the expression of exogenous genes in mammalian systems via an ecdysone receptor complex” (priority 2003, dated 2010)
